Experimental data reported in patent publication US20220089592A1, “IMIDAZO[1,2-A]PYRIDINYL DERIVATIVES AS IRAK4 INHIBITORS” (priority 2019, published 2022).
Structures can show the parent of a compound that is named as a salt.

What follows are compounds tested against T1, IRAK4 (Homo sapiens, UniProt Q9NWZ3) (assay: 2-hour 1 mM ATP IRAK4 Biochemical assay (as above, but with 100 pM IRAK4 and 1 mM ATP)). Conditions: IRAK4 MSD BIOCHEMICAL (1 mM ATP) IC50 (μM), 100 pM IRAK4, 2 hours.
T1 sequence (Q9NWZ3 1-460): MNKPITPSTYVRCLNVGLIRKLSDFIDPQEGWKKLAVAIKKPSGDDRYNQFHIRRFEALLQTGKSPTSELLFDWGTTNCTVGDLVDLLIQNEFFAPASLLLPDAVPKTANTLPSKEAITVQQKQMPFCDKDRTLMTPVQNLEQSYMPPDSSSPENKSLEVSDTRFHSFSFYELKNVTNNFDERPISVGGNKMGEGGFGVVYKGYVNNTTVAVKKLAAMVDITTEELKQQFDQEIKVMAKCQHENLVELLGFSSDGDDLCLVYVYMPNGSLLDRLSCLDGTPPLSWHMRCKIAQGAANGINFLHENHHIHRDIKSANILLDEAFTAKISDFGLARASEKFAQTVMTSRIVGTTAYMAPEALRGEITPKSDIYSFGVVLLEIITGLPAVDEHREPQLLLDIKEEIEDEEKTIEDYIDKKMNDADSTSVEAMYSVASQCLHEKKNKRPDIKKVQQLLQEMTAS
Summary of the method: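 MSD electrochemiluminescence read-out: biotinylated peptide product bound to streptavidin plates, probed with anti-P-Thr rabbit antibody and Sulfo-Tag goat anti-rabbit. Kinase reaction used 1 mM ATP and 100 pM IRAK4 over 2 hours before EDTA quench.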

Row | SMILES | IC50 [µM]
1 | CC(C)Oc1c(NC(=O)c2ccn(C(C)C)n2)cn2cc(C34COC(C)(C3)C4)nc2c1F [Example 546, N-(8-fluoro-7-isopropoxy-2-(1-methyl-2-oxabicyclo[2.1.1]hexan-4-yl)imidazo[1,2-a]pyridin-6-yl)-1-isopropyl-1H-pyrazole-3-carboxamide 2,2,2-trifluoroacetate] | 0.001
2 | CC(C)Oc1c(NC(=O)c2ccn(C(F)F)n2)cn2cc(C34COC(C)(C3)C4)nc2c1F [Example 547, 1-(difluoromethyl)-N-(8-fluoro-7-isopropoxy-2-(1-methyl-2-oxabicyclo[2.1.1]hexan-4-yl)imidazo[1,2-a]pyridin-6-yl)-1H-pyrazole-3-carboxamide] | 0.001
3 | CC(C)Oc1c(NC(=O)c2cccc3ccnn23)cn2cc(C34COC(C)(C3)C4)nc2c1F [Example 548, N-(8-fluoro-7-isopropoxy-2-(1-methyl-2-oxabicyclo[2.1.1]hexan-4-yl)imidazo[1,2-a]pyridin-6-yl)pyrazolo[1,5-a]pyridine-7-carboxamide 2,2,2-trifluoroacetate] | 0.001
4 | COc1nc(NC(=O)c2cccc(C(F)F)n2)cn2cc(C3CCCOC3)nc12 (centres unmarked) [Example 549, 6-(difluoromethyl)-N-(8-methoxy-2-(tetrahydro-2H-pyran-3-yl)imidazo[1,2-a]pyrazin-6-yl)picolinamide] | 0.005
5 | COc1nc(NC(=O)c2cccc(C(F)F)n2)cn2cc(C34COCC3C4)nc12 (centres unmarked) [Example 550, N-(2-(3-oxabicyclo[3.1.0]hexan-1-yl)-8-methoxyimidazo[1,2-a]pyrazin-6-yl)-6-(difluoromethyl)picolinamide 2,2,2-trifluoroacetate] | 0.055
6 | COc1nc(NC(=O)c2cccc(C(F)F)n2)cn2cc(C3C4COCC43)nc12 (centres unmarked) [Example 551, N-(2-(3-oxabicyclo[3.1.0]hexan-6-yl)-8-methoxyimidazo[1,2-a]pyrazin-6-yl)-6-(difluoromethyl)picolinamide 2,2,2-trifluoroactetate] | 0.026
7 | COc1nc(NC(=O)c2cccc(C(F)F)n2)cn2cc(C34CC(C(F)F)(C3)C4)nc12 [Example 552, 6-(difluoromethyl)-N-(2-(3-(difluoromethyl)bicyclo[1.1.1]pentan-1-yl)-8-methoxyimidazo[1,2-a]pyrazin-6-yl)picolinamide 2,2,2-trifluoroacetate] | 0.017
8 | COc1nc(NC(=O)c2cccc(C(F)F)n2)cn2cc(C34CC(OC)(C3)C4)nc12 [Example 553, 6-(difluoromethyl)-N-(8-methoxy-2-(3-methoxybicyclo[1.1.1]pentan-1-yl)imidazo[1,2-a]pyrazin-6-yl)picolinamide 2,2,2-trifluoroacetate] | 0.011
9 | COc1nc(NC(=O)c2cccc(C(F)F)n2)cn2cc(C34COC(C)(C3)C4)nc12 [Example 554, 6-(difluoromethyl)-N-(8-methoxy-2-(1-methyl-2-oxabicyclo[2.1.1]hexan-4-yl)imidazo[1,2-a]pyrazin-6-yl)picolinamide 2,2,2-trifluoroacetate] | 0.011
10 | COc1nc(NC(=O)c2cccc(C(F)F)n2)cn2cc(C34CCOC(C)(C3)C4)nc12 [Example 555, 6-(difluoromethyl)-N-(8-methoxy-2-(1-methyl-2-oxabicyclo[3.1.1]heptan-5-yl)imidazo[1,2-a]pyrazin-6-yl)picolinamide] | 0.007
11 | COc1nc(NC(=O)c2cccc(C(F)F)n2)cn2cc(C3C4CCOCC43)nc12 (centres unmarked) [Example 556, N-(2-(3-oxabicyclo[4.1.0]heptan-7-yl)-8-methoxyimidazo[1,2-a]pyrazin-6-yl)-6-(difluoromethyl)picolinamide 2,2,2-trifluoroacetate] | 0.005
12 | COc1nc(NC(=O)c2cccc(C(F)F)n2)cn2cc(C3CC4(CCOC4)C3)nc12 (centres unmarked) [Example 557, 6-(difluoromethyl)-N-(8-methoxy-2-(6-oxaspiro[3.4]octan-2-yl)imidazo[1,2-a]pyrazin-6-yl)picolinamide 2,2,2-trifluoroacetate] | 0.006
13 | COc1nc(NC(=O)c2cccc(C(F)F)n2)cn2cc(C3CC34CCOCC4)nc12 (centres unmarked) [Example 558, 6-(difluoromethyl)-N-(8-methoxy-2-(6-oxaspiro[2.5]octan-1-yl)imidazo[1,2-a]pyrazin-6-yl)picolinamide 2,2,2-trifluoroacetate] | 0.044
14 | COc1nc(NC(=O)c2cccc(C(F)F)n2)cn2cc(C34COC(CF)(C3)C4)nc12 [Example 559, 6-(difluoromethyl)-N-(2-(1-(fluoromethyl)-2-oxabicyclo[2.1.1]hexan-4-yl)-8-methoxyimidazo[1,2-a]pyrazin-6-yl)picolinamide] | 0.012
15 | COc1nc(NC(=O)c2cccc(C(F)F)n2)cn2cc(C3CCOC(C)(C)C3)nc12 (centres unmarked) [Example 560, 6-(difluoromethyl)-N-(2-(2,2-dimethyltetrahydro-2H-pyran-4-yl)-8-methoxyimidazo[1,2-a]pyrazin-6-yl)picolinamide 2,2,2-trifluoroacetate] | 0.002
16 | COc1nc(NC(=O)c2cccc(C(F)F)n2)cn2cc(C34CCC(CC3)OC4)nc12 [Example 561, N-(2-(2-oxabicyclo[2.2.2]octan-4-yl)-8-methoxyimidazo[1,2-a]pyrazin-6-yl)-6-(difluoromethyl)picolinamide] | 0.051
17 | COc1nc(NC(=O)c2cccc(C(F)F)n2)cn2cc(C3CC3)nc12 [Example 562, N-(2-cyclopropyl-8-methoxyimidazo[1,2-a]pyrazin-6-yl)-6-(difluoromethyl)picolinamide 2,2,2-trifluoroacetate] | 0.053
18 | COc1nc(NC(=O)c2cccc(C(F)F)n2)cn2cc(CCOC(F)(F)F)nc12 [Example 563, 6-(difluoromethyl)-N-(8-methoxy-2-(2-(trifluoromethoxy)ethyl)imidazo[1,2-a]pyrazin-6-yl)picolinamide 2,2,2-trifluoroacetate] | 0.046
19 | COc1nc2nc(C3CC(OC)C3)cn2cc1NC(=O)c1cccc(C(F)F)n1 (centres unmarked) [Example 564, 6-(difluoromethyl)-N-(7-methoxy-2-(3-methoxycyclobutyl)imidazo[1,2-a]pyrimidin-6-yl)picolinamide] | 0.032
20 | COc1nc2nc(C34CC(OC)(C3)C4)cn2cc1NC(=O)c1cccc(C(F)F)n1 [Example 565, 6-(difluoromethyl)-N-(7-methoxy-2-(3-methoxybicyclo[1.1.1]pentan-1-yl)imidazo[1,2-a]pyrimidin-6-yl)picolinamide] | 0.01
21 | COc1nc2nc(C34CC(F)(C3)C4)cn2cc1NC(=O)c1cccc(C(F)F)n1 [Example 566, 6-(difluoromethyl)-N-(2-(3-fluorobicyclo[1.1.1]pentan-1-yl)-7-methoxyimidazo[1,2-a]pyrimidin-6-yl)picolinamide 2,2,2-trifluoroacetate] | 0.054
22 | COc1nc2nc(C34COC(C)(C3)C4)cn2cc1NC(=O)c1cccc(C(F)F)n1 [Example 567, 6-(difluoromethyl)-N-(7-methoxy-2-(1-methyl-2-oxabicyclo[2.1.1]hexan-4-yl)imidazo[1,2-a]pyrimidin-6-yl)picolinamide 2,2,2-trifluoroacetate] | 0.008
23 | COc1nc2nc(C3C4COCC43)cn2cc1NC(=O)c1cccc(C(F)F)n1 (centres unmarked) [Example 568, N-(2-(3-oxabicyclo[3.1.0]hexan-6-yl)-7-methoxyimidazo[1,2-a]pyrimidin-6-yl)-6-(difluoromethyl)picolinamide 2,2,2-trifluoroacetate] | 0.009
24 | COc1nc2nc(C3CCCOC3)cn2cc1NC(=O)c1cccc(C(F)F)n1 (centres unmarked) [Example 569, 6-(difluoromethyl)-N-(7-methoxy-2-(tetrahydro-2H-pyran-3-yl)imidazo[1,2-a]pyrimidin-6-yl)picolinamide] | 0.004
25 | CCOc1nc2nc(C3CCOCC3)cn2cc1NC(=O)c1ccc2c(n1)CCC2 [Example 570, N-(7-ethoxy-2-(tetrahydro-2H-pyran-4-yl)imidazo[1,2-a]pyrimidin-6-yl)-6,7-dihydro-5H-cyclopenta[b]pyridine-2-carboxamide hydrochloride] | 0.005
26 | CC(C)Oc1nc2nc(C34CC(C3)C4)cn2cc1NC(=O)c1cccc(C(F)F)n1 [Example 573, N-(2-(bicyclo[1.1.1]pentan-1-yl)-7-isopropoxyimidazo[1,2-a]pyrimidin-6-yl)-6-(difluoromethyl)picolinamide 2,2,2-trifluoroacetate] | 0.003
27 | CCCOc1nc(NC(=O)c2cccc(C(F)F)n2)cn2cc(C34COC(C)(C3)C4)nc12 [Example 574, 6-(difluoromethyl)-N-(2-(1-methyl-2-oxabicyclo[2.1.1]hexan-4-yl)-8-propoxyimidazo[1,2-a]pyrazin-6-yl)picolinamide] | 0.002
28 | CC(C)Oc1cc2nc(C34COC(C)(C3)C4)c(Cl)n2cc1NC(=O)c1cccc(C(F)F)n1 [Example 575, N-(3-chloro-7-isopropoxy-2-(1-methyl-2-oxabicyclo[2.1.1]hexan-4-yl)imidazo[1,2-a]pyridin-6-yl)-6-(difluoromethyl)picolinamide 2,2,2-trifluoroacetate] | 0.012
29 | CC(C)Oc1nc2nc(C34COC(C)(C3)C4)c(Cl)n2cc1NC(=O)c1cccc(C(F)F)n1 [Example 576, N-(3-chloro-7-isopropoxy-2-(1-methyl-2-oxabicyclo[2.1.1]hexan-4-yl)imidazo[1,2-a]pyrimidine-6-yl)-6-(difluoromethyl)picolinamide 2,2,2-trifluoroacetate] | 0.199
